Results on 3 molecules are retold here after paper PMC4832382, “GacA is essential for Group A S treptococcus and defines a new class of monomeric dTDP‐4‐dehydrorhamnose reductases (RmlD)” (Molecular Microbiology, 2015).

Data set [1] concerns the target T1, GacA (dTDP-4-dehydrorhamnose reductase, RmlD) (Streptococcus pyogenes, UniProt Q9A0G6).
T1 construct: full-length gacA (AAZ51220.1; M5005_Spy_0602), chemically biotinylated
As to the kind of experiment: SPR (Biacore T200), equilibrium fit, […]°C. It counts as binding. (In SPR one partner is held on a chip, and binding of the other changes the refractive index at the surface.)

Data set [2] concerns the molecule itself. The data set is described as follows: SEC; size-exclusion chromatography of purified wild-type SeRmlD and triple mutant, retention compared with GacA.

T1 sequence (Q9A0G6 entry or part of it): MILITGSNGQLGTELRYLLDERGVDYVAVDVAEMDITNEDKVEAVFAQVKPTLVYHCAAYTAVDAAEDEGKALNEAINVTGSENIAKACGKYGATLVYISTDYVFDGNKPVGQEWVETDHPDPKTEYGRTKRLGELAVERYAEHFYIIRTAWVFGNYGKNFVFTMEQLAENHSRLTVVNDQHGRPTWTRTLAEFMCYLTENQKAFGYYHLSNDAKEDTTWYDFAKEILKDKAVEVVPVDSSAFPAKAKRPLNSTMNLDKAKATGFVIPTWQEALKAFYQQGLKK

For orientation: Kd means a measure of binding affinity in units of concentration. For the molecule `NC(=O)C1=CN([C@@H]2O[C@H](COP(=O)(O)OP(=O)(O)OC[C@H]3O[C@@H](n4cnc5c(N)ncnc54)[C@H](O)[C@@H]3O)[C@@H](O)[C@H]2O)C=CC1` [NADH], the Kd in data set [1] came out at 110 µM. The same measure, in the same setting: with `NC(=O)C1=CN([C@@H]2O[C@H](COP(=O)(O)OP(=O)(O)OC[C@H]3O[C@@H](n4cnc5c(N)ncnc54)[C@H](OP(=O)(O)O)[C@@H]3O)[C@@H](O)[C@H]2O)C=CC1` [NADPH] the figure was 390 µM.

B1: RmlD (dTDP-4-dehydrorhamnose reductase) from Salmonella enterica serovar Typhimurium, wild type (enzyme, Salmonella enterica (LT2), UniProt P26392 1-299, looked up)
chain: MNILLFGKTGQVGWELQRSLAPVGNLIALDVHSKEFCGDFSNPKGVAETVRKLRPDVIVNAAAHTAVDKAESEPELAQLLNATSVEAIAKAANETGAWVVHYSTDYVFPGTGDIPWQETDATSPLNVYGKTKLAGEKALQDNCPKHLIFRTSWVYAGKGNNFAKTMLRLAKERQTLSVINDQYGAPTGAELLADCTAHAIRVALNKPEVAGLYHLVAGGTTTWHDYAALVFDEARKAGITLALTELNAVPTSAYPTPASRPGNSRLNTEKFQRNFDLILPQWELGVKRMLTEMFTTTTI
notes: RmlD, Salmonella enterica serovar Typhimurium LT2, full-length rmlD (GI 16420628); also called SeRmlD; wild-type SeRmlD; source: E. coli BL21(DE3), expressed and purified as described for GacA; not shown: His6, N-terminal, cleaved; GST, N-terminal, cleaved
For orientation: stoichiometry N means a count of units in the complex or per binding partner. In the case of B1, the “stoichiometry N” value in data set [2] worked out at 2.
